Measured values reported in ChEMBL document CHEMBL1154564 (J Nat Prod, 2000).

Tests used:
[1] = target: D(1A) dopamine receptor (Rattus norvegicus, UniProt P18901); assay: Displacement of [3H]SCH23390 from dopamine D1 receptor in Wistar rat striatal membrane; type: cell membranes, Striatum
[2] = target: T1, Alpha-1A adrenergic receptor (Rattus norvegicus, UniProt P43140); assay: Displacement of [3H]prazosin from adrenergic alpha1A receptor in rat brain membrane; type: cell membranes
T1 sequence (P43140 whole entry): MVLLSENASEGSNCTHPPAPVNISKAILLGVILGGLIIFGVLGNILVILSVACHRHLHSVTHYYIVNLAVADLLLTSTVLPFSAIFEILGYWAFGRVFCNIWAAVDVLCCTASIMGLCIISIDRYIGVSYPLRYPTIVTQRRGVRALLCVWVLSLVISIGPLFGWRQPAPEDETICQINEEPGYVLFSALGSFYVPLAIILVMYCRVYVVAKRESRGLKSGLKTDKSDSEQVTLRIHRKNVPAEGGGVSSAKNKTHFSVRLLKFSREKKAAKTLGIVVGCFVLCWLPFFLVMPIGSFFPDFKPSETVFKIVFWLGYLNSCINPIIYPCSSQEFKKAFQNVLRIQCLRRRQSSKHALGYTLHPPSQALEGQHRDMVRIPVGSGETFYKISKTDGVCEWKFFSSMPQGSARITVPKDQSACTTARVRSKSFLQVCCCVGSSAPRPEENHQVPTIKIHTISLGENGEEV

[3] = target: T2, Alpha-1B adrenergic receptor (Rattus norvegicus, UniProt P15823); assay: Displacement of [3H]prazosin from adrenergic Alpha-1B receptor in rat brain membrane; type: cell membranes
T2 sequence (P15823 whole entry): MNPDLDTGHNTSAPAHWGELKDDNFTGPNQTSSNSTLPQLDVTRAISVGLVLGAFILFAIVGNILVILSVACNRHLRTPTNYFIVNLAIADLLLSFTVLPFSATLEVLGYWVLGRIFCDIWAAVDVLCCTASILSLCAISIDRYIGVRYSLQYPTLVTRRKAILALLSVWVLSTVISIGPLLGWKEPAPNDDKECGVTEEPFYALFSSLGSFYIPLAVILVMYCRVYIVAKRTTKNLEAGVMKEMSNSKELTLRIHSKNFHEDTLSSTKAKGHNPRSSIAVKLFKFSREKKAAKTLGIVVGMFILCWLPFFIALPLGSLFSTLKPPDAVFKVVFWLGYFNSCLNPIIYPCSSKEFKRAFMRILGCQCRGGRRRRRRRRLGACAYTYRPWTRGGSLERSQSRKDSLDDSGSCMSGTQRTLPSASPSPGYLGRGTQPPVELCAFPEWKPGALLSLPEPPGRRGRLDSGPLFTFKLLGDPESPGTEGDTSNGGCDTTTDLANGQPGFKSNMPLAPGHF

[4] = species on record: Rattus norvegicus; assay: Selectivity ratio of IC50 for rat adrenergic alpha1A receptor to IC50 for adrenergic Alpha-1B receptor
[5] = target: D(2) dopamine receptor (Rattus norvegicus, UniProt P61169); assay: Displacement of [3H]raclopride from dopamine D2 receptor in Wistar rat striatal membrane; type: cell membranes, Striatum
[6] = species on record: Rattus norvegicus; assay: Selectivity ratio of IC50 for Wistar rat dopamine D2 receptor to IC50 for Wistar rat dopamine D1 receptor

Chain of D(2) dopamine receptor (P61169 whole entry): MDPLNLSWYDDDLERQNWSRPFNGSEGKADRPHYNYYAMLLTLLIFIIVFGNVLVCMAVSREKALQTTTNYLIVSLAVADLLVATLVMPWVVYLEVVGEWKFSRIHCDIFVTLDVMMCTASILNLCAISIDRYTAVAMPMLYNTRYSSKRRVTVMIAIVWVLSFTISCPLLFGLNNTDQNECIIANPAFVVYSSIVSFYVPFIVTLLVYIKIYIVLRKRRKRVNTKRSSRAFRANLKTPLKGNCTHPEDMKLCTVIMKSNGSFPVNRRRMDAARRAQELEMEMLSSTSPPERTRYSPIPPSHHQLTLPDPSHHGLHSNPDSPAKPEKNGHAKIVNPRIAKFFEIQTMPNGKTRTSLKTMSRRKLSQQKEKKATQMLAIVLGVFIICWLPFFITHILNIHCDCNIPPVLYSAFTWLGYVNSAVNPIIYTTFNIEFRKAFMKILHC
Chain of D(1A) dopamine receptor (P18901 whole entry): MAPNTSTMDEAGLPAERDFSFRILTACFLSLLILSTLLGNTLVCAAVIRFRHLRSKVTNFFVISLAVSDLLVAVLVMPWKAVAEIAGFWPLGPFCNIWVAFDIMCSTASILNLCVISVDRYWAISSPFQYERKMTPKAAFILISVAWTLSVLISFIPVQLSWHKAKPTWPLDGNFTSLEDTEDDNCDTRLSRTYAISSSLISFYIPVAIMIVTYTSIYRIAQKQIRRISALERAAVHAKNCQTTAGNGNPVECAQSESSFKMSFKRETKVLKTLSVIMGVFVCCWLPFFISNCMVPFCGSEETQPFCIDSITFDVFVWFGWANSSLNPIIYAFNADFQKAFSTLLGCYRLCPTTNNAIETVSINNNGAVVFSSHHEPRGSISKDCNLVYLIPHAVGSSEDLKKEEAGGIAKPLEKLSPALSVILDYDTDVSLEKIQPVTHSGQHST

Structure (SMILES) | IC50 [1] [nM] | Ki [2] [nM] | Ki [3] [nM] | Ratio [4] | IC50 [5] [nM] | Ratio IC50 [6]
COc1cc2c(c(Br)c1O)C[C@H]1c3c(c(Br)c(O)c(OC)c3-2)CCN1C | 206 | 1.35 | 120 | 90 | 1910 | 9.3
COc1cc2c(cc1O)C[C@H]1c3c(c(Cl)c(O)c(OC)c3-2)CCN1C | 81 | 2.24 | 269 | 122 | 720 | 8.9
COc1cc2c(cc1O)C[C@H]1c3c(c(Br)c(O)c(OC)c3-2)CCN1C [3-BROMOBOLDINE] | 66 | 1.17 | 135 | 120 | 1050 | 15.9
COc1cc2c(cc1O)C[C@H]1c3c(cc(O)c(OC)c3-2)CCN1C [BOLDINE] | – | 4.9 | 316 | – | – | –
COc1cc2c(cc1O)C[C@H]1c3c(c(I)c(O)c(OC)c3-2)CCN1C | 3 | – | – | – | 96 | 32
